Source: ChEMBL document CHEMBL3091348, “Discovery of an intravenous hepatoselective glucokinase activator for the treatment of inpatient hyperglycemia” (Bioorg Med Chem Lett, 2013)

Key:
[1] = Apparent permeability across RRCK cells; format: ADME, cell-based, Canis lupus familiaris, MDCKII-LE; details: dog, MDCK
[2] = Lipophilicity, log D of the compound at pH 7.4; format: physicochemical; details: buffer
[3] = target: T1, Hexokinase-4 (Homo sapiens) (UniProt P35557); test: Activation of recombinant human glucokinase assessed as increase in enzyme Vmax for glucose by G6PDH/NADP coupled assay relative to control
T1 sequence (whole entry): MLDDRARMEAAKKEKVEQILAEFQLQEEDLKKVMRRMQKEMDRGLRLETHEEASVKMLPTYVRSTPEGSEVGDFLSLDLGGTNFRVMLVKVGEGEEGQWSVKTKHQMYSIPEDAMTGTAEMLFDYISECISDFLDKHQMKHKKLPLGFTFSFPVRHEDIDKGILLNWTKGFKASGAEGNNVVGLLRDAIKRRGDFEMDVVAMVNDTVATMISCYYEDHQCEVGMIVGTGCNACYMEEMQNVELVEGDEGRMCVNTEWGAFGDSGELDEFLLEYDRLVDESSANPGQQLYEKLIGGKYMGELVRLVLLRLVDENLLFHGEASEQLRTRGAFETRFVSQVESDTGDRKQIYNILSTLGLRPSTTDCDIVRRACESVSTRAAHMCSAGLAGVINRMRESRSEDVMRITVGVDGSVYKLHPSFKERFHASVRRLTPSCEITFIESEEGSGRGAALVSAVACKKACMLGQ

[4] = target: T1, Hexokinase-4 (Homo sapiens); test: Activation of recombinant human glucokinase assessed as decrease in enzyme Km for glucose by G6PDH/NADP coupled assay relative to control
[5] = target: T2, Hexokinase-4 (Homo sapiens, UniProt P35557); test: Activation of recombinant human glucokinase by G6PDH/NADP coupled assay
T2 sequence (P35557 whole entry): T1 sequence (whole entry)

[6] = Organic anion transporter-mediated drug uptake in rat hepatocytes assessed as active uptake; format: ADME, cell-based, Hepatocyte
[7] = Organic anion transporter-mediated drug uptake in rat hepatocytes assessed as passive uptake; format: ADME, cell-based, Hepatocyte
[8] = Organic anion transporter-mediated drug uptake in rat hepatocytes assessed as total uptake; format: ADME, cell-based, Hepatocyte
[9] = target: T3, Hexokinase-4 (Rattus norvegicus, UniProt P17712); test: Activation of glucokinase in rat INS-1 cells assessed as glucose-stimulated insulin secretion; format: cell-based, INS1
T3 sequence (P17712 whole entry): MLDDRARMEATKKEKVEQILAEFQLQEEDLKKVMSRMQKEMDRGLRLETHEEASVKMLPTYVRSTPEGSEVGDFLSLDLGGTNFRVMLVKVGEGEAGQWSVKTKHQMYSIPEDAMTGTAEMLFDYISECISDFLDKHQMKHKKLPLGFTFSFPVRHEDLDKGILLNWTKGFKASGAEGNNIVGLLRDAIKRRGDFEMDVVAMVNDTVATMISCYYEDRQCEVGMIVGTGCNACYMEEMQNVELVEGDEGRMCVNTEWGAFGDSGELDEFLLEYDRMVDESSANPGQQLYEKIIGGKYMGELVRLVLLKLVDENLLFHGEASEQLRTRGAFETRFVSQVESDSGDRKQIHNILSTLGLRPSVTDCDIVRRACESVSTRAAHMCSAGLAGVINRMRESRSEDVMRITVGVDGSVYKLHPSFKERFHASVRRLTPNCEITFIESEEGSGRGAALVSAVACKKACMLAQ

Row | SMILES | Papp [1] [×10⁻⁶ cm/s] | logD [2] | fold change (FC) [3] | fold change (FC) [4] | EC50 [5] [nM] | Drug uptake [6] [%] | Drug uptake [7] [µL/min/mg] | Drug uptake [8] [µL/min/mg] | EC50 [9] [nM]
1 | O=C(O)c1ccc(NC(=O)[C@H](CC2CCOCC2)n2cnc(S(=O)(=O)C3CCC3)c2)nc1 | 0.9 | -1.55 |  |  | > 10000 |  |  |  | 
2 | CC(C)c1nc(N(C)S(C)(=O)=O)nc(-c2ccc(F)cc2)c1/C=C/[C@@H](O)C[C@@H](O)CC(=O)O [ROSUVASTATIN] |  |  |  |  |  | 91 | 5.8 | 158 | 
3 | O=C(O)c1ccc(NC(=O)[C@H](CC2CCCC2)n2cnc(S(=O)(=O)C3CC3)c2)nc1 | 0.6 | -0.2 | 1.68 | 0.05 | 137 |  |  |  | 26000

Results, then the compound that gave them:

Row | Papp [1] [×10⁻⁶ cm/s] | logD [2] | fold change (FC) [3] | fold change (FC) [4] | EC50 [5] [nM] | Drug uptake [6] [%] | Drug uptake [7] [µL/min/mg] | Drug uptake [8] [µL/min/mg] | EC50 [9] [nM] | SMILES
4 | 0.5 | -0.25 | 1.5 | 0.08 | 113 |  |  |  |  | O=C(O)c1ccc(NC(=O)[C@H](CC2CCCCC2)n2cnc(S(=O)(=O)C3CC3)c2)nc1
5 |  |  | 1.35 | 0.06 |  |  |  |  |  | O=C(O)c1ccc(NC(=O)[C@H](CC2CCCC2)n2cnc(S(=O)(=O)C3CCC3)c2)nc1
